Data published in patent publication US10329270B2, “Heteroaryl compounds as BTK inhibitors and uses thereof” (Merck Patent GmbH, priority 2013, dated 2019).

Experiments:
PBMC = experiment: Assay B: Time Dependent PMBC IC50 Assay; type: cell-based
Procedure: Assay B: Time Dependent PMBC IC50 Assay
Compounds described by embodiments of the present invention were assayed using a time dependent PMBC assay. The data from the same is recorded in Table 2 within the column labeled: “Time Dependent PBMC Assay IC50.” These IC50 values are reported in ranges wherein: I<1 uM and II>1 uM.

full-length human BTK = target: T1, full-length human BTK (Homo sapiens, UniProt Q06187); experiment: Assay A: BTK IC50 Enzyme Assay (microfluidic off-chip mobility shift kinase assay); type: biochemical; details: full-length human BTK, kinKDR peptide substrate, incubated 90 min at 27 C; read-out: Assay A (Time Dependent BTK Enzyme Assay IC50)
T1 construct: 2.5× stocks of full-length human BTK (08-080); purchased CarnaBio USA, Inc., Natick, Mass; 08-080
T1 sequence (Q06187 whole entry): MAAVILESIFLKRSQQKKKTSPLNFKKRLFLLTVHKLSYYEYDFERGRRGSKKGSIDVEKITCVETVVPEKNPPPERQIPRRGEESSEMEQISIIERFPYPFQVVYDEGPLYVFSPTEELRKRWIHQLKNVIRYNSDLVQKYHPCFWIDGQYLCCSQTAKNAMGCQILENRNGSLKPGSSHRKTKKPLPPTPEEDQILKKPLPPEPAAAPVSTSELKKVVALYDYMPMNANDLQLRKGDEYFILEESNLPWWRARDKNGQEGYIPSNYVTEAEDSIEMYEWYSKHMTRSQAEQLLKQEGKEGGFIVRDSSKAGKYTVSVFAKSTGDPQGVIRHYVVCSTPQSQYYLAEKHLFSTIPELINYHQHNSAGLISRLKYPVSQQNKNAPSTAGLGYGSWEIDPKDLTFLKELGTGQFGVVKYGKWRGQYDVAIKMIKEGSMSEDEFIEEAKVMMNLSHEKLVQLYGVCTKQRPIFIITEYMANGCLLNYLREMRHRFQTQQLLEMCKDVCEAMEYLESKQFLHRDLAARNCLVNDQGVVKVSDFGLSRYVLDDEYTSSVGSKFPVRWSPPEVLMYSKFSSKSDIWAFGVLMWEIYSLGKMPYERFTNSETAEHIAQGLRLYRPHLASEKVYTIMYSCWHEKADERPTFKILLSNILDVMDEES
Outline: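 Off-chip microfluidic mobility shift assay with full-length human BTK; phosphorylated and unphosphorylated peptide substrate were separated by charge/mass on a LabChip 3000.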

| Structure (SMILES) | IC50 (full-length human BTK) [µM] | IC50 (PBMC) [µM] |
| --- | --- | --- |
| C=CC(=O)N1C[C@@H]2C[C@H]1CN2c1ccc(C(N)=O)c(Oc2ccc(Oc3ccccc3)cc2)n1 [Compound 23, 6-((1S,4S)-5-acryloyl-2,5-diazabicyclo[2.2.1]heptan-2-yl)-2-(4-phenoxyphenoxy)nicotinamide] |  | < 0.1 |
| C=CC(=O)N1C2CCC1CN(c1ccc(C(N)=O)c(Oc3ccc(Oc4ccccc4)cc3)n1)C2 [Compound 68, 6-(8-Acryloyl-3,8-diaza-bicyclo[3.2.1]oct-3-yl)-2-(4-phenoxy-phenoxy)-nicotinamide] |  | < 0.1 |
| C/C=C/C(=O)N1CCC(Nc2cnc(Oc3ccc(Oc4cccc(F)c4)cc3)c(C(N)=O)c2)C1 (stereo not shown) [Compound 229, 5-[1-((E)-But-2-enoyl)-pyrrolidin-3-ylamino]-2-[4-(3-fluoro-phenoxy)-phenoxy]-nicotinamide] | 1 to 5 |  |
| C/C=C/C(=O)N1CCC(Nc2cnc(Oc3ccc(Oc4cccc(F)c4)cc3)c(C(N)=O)c2)CC1 [Compound 230, 5-[1-((E)-But-2-enoyl)-piperidin-4-ylamino]-2-[4-(3-fluoro-phenoxy)-phenoxy]-nicotinamide] | 1 to 5 |  |
| C/C=C/C(=O)N1CCCC(Nc2cnc(Oc3ccc(Oc4cccc(F)c4)cc3)c(C(N)=O)c2)C1 (stereo not shown) [Compound 231, (E)-5-((1-(but-2-enoyl)piperidin-3-yl)amino)-2-(4-(3-fluorophenoxy)phenoxy)nicotinamide] | 1 to 5 |  |
| C/C=C/C(=O)N1CCC2(CCN(c3cnc(Oc4ccc(Oc5cccc(F)c5)cc4)c(C(N)=O)c3)C2)C1 (stereo not shown) [Compound 232, (E)-5-(7-(but-2-enoyl)-2,7-diazaspiro[4.4]nonan-2-yl)-2-(4-(3-fluorophenoxy)phenoxy) nicotinamide] | 1 to 5 |  |
| C/C=C/C(=O)N1CCC(Nc2cnc(Oc3ccc(Oc4ccccc4)cc3)c(C(N)=O)c2)CC1 [Compound 234, 5-[1-((E)-But-2-enoyl)-piperidin-4-ylamino]-2-(4-phenoxy-phenoxy)-nicotinamide] | 1 to 5 |  |
| C/C=C/C(=O)N1CC2CN(c3cnc(Oc4ccc(Oc5cccc(F)c5)cc4)c(C(N)=O)c3)CC2C1 (stereo not shown) [Compound 235, 5-[5-((E)-But-2-enoyl)-hexahydro-pyrrolo[3,4-c]pyrrol-2-yl]-2-[4-(3-fluoro-phenoxy)-phenoxy]-nicotinamide] | > 5 |  |
| N#CNC(=O)N1CCN(c2ccc(C(N)=O)c(Oc3ccc(Oc4ccccc4)cc3)n2)CC1 [Compound 237, 4-(5-carbamoyl-6-(4-phenoxyphenoxy)pyridin-2-yl)-N-cyanopiperazine-1-carboxamide] | 1 to 5 |  |
| N#CN1CCCC(Nc2ncc(C(N)=O)c(Oc3ccc(Oc4ccccc4)cc3)n2)C1 (stereo not shown) [Compound 239, 2-[(1-cyanopiperidin-3-yl)amino]-4-(4-phenoxyphenoxy)pyrimidine-5-carboxamide] | 1 to 5 |  |
| N#CN1CC2(CC(Nc3ncc(C(N)=O)c(Oc4ccc(Oc5ccccc5)cc4)n3)C2)C1 [Compound 242, 2-[(2-cyano-2-azaspiro[3.3]heptan-6-yl]amino)-4-(4-phenoxyphenoxy)pyrimidine-5-carboxamide] | > 5 |  |
| N#CN1CCC(c2cnc(Oc3ccc(Oc4ccccc4)cc3)c(C(N)=O)c2)CC1 [Compound 244, 5-(1-cyanopiperidin-4-yl)-2-(4-phenoxyphenoxy)pyridine-3-carboxamide] | 1 to 5 |  |
| N#CN1CCC(c2cnc(Oc3ccc(Oc4ccccc4)cc3)c(C(N)=O)c2)C1 (stereo not shown) [Compound 245, 5-(1-cyanopyrrolidin-3-yl)-2-(4-phenoxyphenoxy)pyridine-3-carboxamide] | 1 to 5 |  |
| N#CN1CCC(Nc2cnc(Oc3ccc(Oc4ccccc4)cc3)c(C(N)=O)c2)CC1 [Compound 246, 5-[(1-cyanopiperidin-4-yl)amino]-2-(4-phenoxyphenoxy)pyridine-3-carboxamide] | > 5 |  |
| N#CN1CCCC(Nc2cnc(Oc3ccc(Oc4ccccc4)cc3)c(C(N)=O)c2)C1 (stereo not shown) [Compound 247, 5-[(1-cyanopiperidin-3-yl)amino]-2-(4-phenoxyphenoxy)pyridine-3-carboxamide] | 1 to 5 |  |
| N#CN1CCC[C@H](c2cnc(Oc3ccc(Oc4ccc(F)cc4F)cc3)c(C(N)=O)c2)C1 [Compound 248, 5-[(3R)-1-cyanopiperidin-3-yl]-2-[4-(2,4-difluorophenoxy)phenoxy]pyridine-3-carboxamide] | 1 to 5 |  |
| N#CN1CCC[C@@H](c2cnc(Oc3ccc(Oc4ccc(F)cc4F)cc3)c(C(N)=O)c2)C1 [Compound 249, 5-[(3S)-1-cyanopiperidin-3-yl]-2-[4-(2,4-difluorophenoxy)phenoxy]pyridine-3-carboxamide] | > 5 |  |
| N#CN1CCC(Nc2cnc(Oc3ccc(Oc4ccc(F)cc4F)cc3)c(C(N)=O)c2)C1 (stereo not shown) [Compound 250, 5-[(1-cyanopyrrolidin-3-yl)amino]-2-[4-(2,4-difluorophenoxy)phenoxy]pyridine-3-carboxamide] | 1 to 5 |  |

Continued, in another order:

| IC50 (full-length human BTK) [µM] | Structure (SMILES) | IC50 (PBMC) [µM] |
| --- | --- | --- |
| < 0.1 | C=CC(=O)N1CC2CCC1CN2c1ncc(C(N)=O)c(Oc2ccc(Oc3ccccc3)cc2)n1 (stereo not shown) [Compound 225, 2-(5-acryloyl-2,5-diazabicyclo[2.2.2]octan-2-yl)-4-(4-phenoxyphenoxy)pyrimidine-5-carboxamide] |  |
| < 0.1 | C=CC(=O)N[C@@H]1CCCN(c2nc(Nc3ccc(N4CCN(C)CC4)cc3)c(C(N)=O)cc2F)C1 [Compound 226, (R)-3-Acryloylamino-3′-fluoro-6′-[4-(4-methyl-piperazin-1-yl)-phenylamino]-3,4,5,6-tetrahydro-2H-[1,2′]bipyridinyl-5′-carboxylic acid amide] |  |
| < 0.1 | C=CC(=O)N1CCC(Nc2cnc(Oc3ccc(Oc4cccc(F)c4)cc3)c(C(N)=O)c2)CC1 [Compound 228, 5-(1-Acryloyl-piperidin-4-ylamino)-2-[4-(3-fluoro-phenoxy)-phenoxy]-nicotinamide] |  |
| 0.1 to 1 | C=CC(=O)N1CCC2(CCN(c3cnc(Oc4ccc(Oc5cccc(F)c5)cc4)c(C(N)=O)c3)C2)C1 (stereo not shown) [Compound 233, 5-(7-acryloyl-2,7-diazaspiro[4.4]nonan-2-yl)-2-(4-(3-fluorophenoxy)phenoxy)nicotinamide] |  |
| 0.1 to 1 | C=CC(=O)N1CC2CN(c3cnc(Oc4ccc(Oc5cccc(F)c5)cc4)c(C(N)=O)c3)CC2C1 (stereo not shown) [Compound 238, 5-(5-Acryloyl-hexahydro-pyrrolo[3,4-c]pyrrol-2-yl)-2-[4-(3-fluoro-phenoxy)-phenoxy]-nicotinamide] |  |
| 0.1 to 1 | N#CN1CCC[C@@H](c2cnc(Oc3ccc(Oc4ccccc4)cc3)c(C(N)=O)c2)C1 [Compound 240, (S)-5-(1-cyanopiperidin-3-yl)-2-(4-phenoxyphenoxy)nicotinamide] |  |
| 0.1 to 1 | N#CN1CCC(Nc2cnc(Oc3ccc(Oc4ccccc4)cc3)c(C(N)=O)c2)C1 (stereo not shown) [Compound 243, 5-[(1-cyanopyrrolidin-3-yl)amino]-2-(4-phenoxyphenoxy)pyridine-3-carboxamide] |  |
| 0.1 to 1 | C=CC(=O)N1CCCC(Nc2cnc(Oc3ccc(Oc4cccc(F)c4)cc3)c(C(N)=O)c2)C1 (stereo not shown) [Compound 251] |  |
| < 0.1 | C=CC(=O)N1CCC(Nc2cnc(Oc3ccc(Oc4ccccc4)cc3)c(C(N)=O)c2)CC1 [Compound 252, 5-(1-Acryloyl-piperidin-4-ylamino)-2-(4-phenoxy-phenoxy)-nicotinamide] |  |
| < 0.1 | C=CC(=O)N1CCC(Nc2cnc(Oc3ccc(Oc4cccc(F)c4)cc3)c(C(N)=O)c2)C1 (stereo not shown) [Compound 253, 5-(1-Acryloyl-pyrrolidin-3-ylamino)-2-[4-(3-fluoro-phenoxy)-phenoxy]-nicotinamide] |  |
